# Reference: ChEMBL document CHEMBL4002643, “Tubulin-binding dibenz[c,e]oxepines: Part 2. Structural variation and biological evaluation as tumour vasculature disrupting agents” (Bioorg Med Chem, 2017)
# Activity calls are given as the source filed them. No cut-off for these calls is given here.
# Tests used:
# [1] = tested on: K562; test: Cytotoxicity against human K562 cells assessed as growth inhibition after 5 days by MTT assay; type: functional, cell-based; settings: K562, 120 h
# [2] = tested on: K562; test: Cytotoxicity against human K562 cells assessed as growth inhibition after 48 hrs by SRB assay; type: functional; settings: K562, 48 h
# [3] = tested on: MOLT-4; test: Cytotoxicity against human MOLT4 cells assessed as growth inhibition after 48 hrs by SRB assay; type: functional; settings: MOLT-4, 48 h
# [4] = tested on: EKVX; test: Cytotoxicity against human EKVX cells assessed as growth inhibition after 48 hrs by SRB assay; type: functional
# [5] = tested on: HCT-116; test: Cytotoxicity against human HCT116 cells assessed as growth inhibition after 48 hrs by SRB assay; type: functional; settings: HCT-116, 48 h
# [6] = tested on: HCT-15; test: Cytotoxicity against human HCT15 cells assessed as growth inhibition after 48 hrs by SRB assay; type: functional; settings: HCT-15, 48 h
# [7] = tested on: Malme-3M; test: Cytotoxicity against human MALME-3M cells assessed as growth inhibition after 48 hrs by SRB assay; type: functional
# [8] = tested on: UACC-257; test: Cytotoxicity against human UACC257 cells assessed as growth inhibition after 48 hrs by SRB assay; type: functional; settings: UACC-257, 48 h
# [9] = tested on: OVCAR-3; test: Cytotoxicity against human OVCAR3 cells assessed as growth inhibition after 48 hrs by SRB assay; type: functional; settings: OVCAR-3, 48 h
# [10] = tested on: SK-OV-3; test: Cytotoxicity against human SKOV3 cells assessed as growth inhibition after 48 hrs by SRB assay; type: functional; settings: SK-OV-3, 48 h
# [11] = tested on: CAKI-1; test: Cytotoxicity against human Caki1 cells assessed as growth inhibition after 48 hrs by SRB assay; type: functional; settings: CAKI-1, 48 h
# [12] = tested on: DLD-1; test: Induction of vascular shutdown in human DLD1 cells xenografted in Balb/C immunodeficient nude mouse at 400 mg/kg, iv by […] dye-based microscopic method; type: functional, organism-based; settings: TDE = time-dependent effect
# [13] = tested on: DLD-1; test: Induction of vascular shutdown in human DLD1 cells xenografted in Balb/C immunodeficient nude mouse assessed as vascular element counts at 400 mg/kg, iv at 1 hr post dose by […] dye-based microscopic method (reference value: 3.73 +/- 3.1%); type: functional
# [14] = tested on: DLD-1; test: Induction of vascular shutdown in human DLD1 cells xenografted in Balb/C immunodeficient nude mouse assessed as vascular element counts at 400 mg/kg, iv at 4 hrs post dose by […] dye-based microscopic method (reference value: 3.73 +/- 3.1%); type: functional
# [15] = tested on: DLD-1; test: Induction of vascular shutdown in human DLD1 cells xenografted in Balb/C immunodeficient nude mouse assessed as vascular element counts at 400 mg/kg, iv at 24 hrs post dose by […] dye-based microscopic method (reference value: 3.73 +/- 3.1%); type: functional
# [16] = tested on: DLD-1; test: Vascular disrupting activity in human DLD1 cells xenografted in Balb/C immunodeficient nude mouse assessed as induction of necrosis by measuring necrotic area at 400 mg/kg, iv at 1 hr post dose by haematoxylin and eosin staining-based assay (reference value: 19 +/- 9.6%); type: functional
# [17] = tested on: DLD-1; test: Vascular disrupting activity in human DLD1 cells xenografted in Balb/C immunodeficient nude mouse assessed as induction of necrosis by measuring necrotic area at 400 mg/kg, iv at 4 hrs post dose by haematoxylin and eosin staining-based assay (reference value: 19 +/- 9.6%); type: functional
# [18] = tested on: DLD-1; test: Vascular disrupting activity in human DLD1 cells xenografted in Balb/C immunodeficient nude mouse assessed as induction of necrosis by measuring necrotic area at 400 mg/kg, iv at 24 hrs post dose by haematoxylin and eosin staining-based assay (reference value: 19 +/- 9.6%); type: functional
# [19] = tested on: Mus musculus; test: Toxicity in human DLD1 cells xenografted Balb/C immunodeficient nude mouse assessed as body weight loss at 200 to 400 mg/kg, iv administered day 2 and 4 measured 14 days post dose; type: organism-based; settings: in vivo, 336 h
# [20] = tested on: HOP-92; test: Cytotoxicity against human HOP92 cells assessed as growth inhibition after 48 hrs by SRB assay; type: functional; settings: HOP-92, 48 h
# [21] = tested on: TK-10; test: Cytotoxicity against human TK10 cells assessed as growth inhibition after 48 hrs by SRB assay; type: functional; settings: TK-10, 48 h
# [22] = tested on: Calu-6; test: Antitumor activity against human Calu6 cells xenografted in nu/nu CBA mouse assessed as tumor growth inhibition at 67.5 to 135 mg/kg, ip administered on day 1 and 5 measured on day 2 and 6 post dose; type: functional, organism-based
# [23] = tested on: Calu-6; test: Antitumor activity against human Calu6 cells xenografted in nu/nu CBA mouse assessed as tumor growth inhibition at 67.5 to 135 mg/kg, ip administered on day 1 and 5 measured on day 3 to 4 and day 7 to 16 post dose; type: functional, organism-based
# [24] = tested on: Mus musculus; test: Toxicity in human Calu6 cells xenografted nu/nu CBA mouse assessed as change in body weight at 67.5 to 135 mg/kg, ip administered on day 1 and 5 measured daily over 12 days; type: organism-based; settings: in vivo, 288 h
SMILES,IC50 [1],GI50 [2],GI50 [3],GI50 [4],GI50 [5],GI50 [6],GI50 [7],GI50 [8],GI50 [9],GI50 [10],GI50 [11],GI50 [20],GI50 [21],also measured
COc1ccc2c(c1OP(=O)([O-])[O-])COCc1cc(OC)c(OC)c(OC)c1-2.[Na+].[Na+],230 nM,280 nM,400 nM,680 nM,430 nM,440 nM,2510 nM,4680 nM,280 nM,400 nM,790 nM,–,–,Activity [12]: Tde; Activity [13]: 0.33%; Activity [14]: 1.96%; Activity [15]: 0.95%; Activity [16]: 27.1%; Activity [17]: 26%; Activity [18]: 74.1%; Activity [19]: Non-Toxic
COc1ccc2c(c1)COCc1cc(OC)c(OC)c(OC)c1-2,110000 nM,40 nM,90 nM,600 nM,50 nM,80 nM,> 100000 nM,> 100000 nM,50 nM,130 nM,30200 nM,> 100000 nM,> 100000 nM,–
COc1ccc2c(c1O)COCc1cc(OC)c(OC)c(OC)c1-2,34000 nM,40 nM,60 nM,–,320 nM,80 nM,–,> 100000 nM,210 nM,70 nM,830 nM,590 nM,> 100000 nM,TGI [22]: Active; TGI [23]: inactive; Activity [24]: Non-Toxic
